Reference: US12655106B2 (Eikonizo Therapeutics, Inc., priority 2021, dated 2026)

Tests used:
[1] = biological target: T1, Full length Human HDAC6 (Homo sapiens, UniProt Q9UBN7); assay: Caliper endpoint assay for HDAC enzymatic activity (HDAC6); assay type: biochemical; conditions: for IC50: in vitro enzymatic, Caliper endpoint assay, 30 min pre-incubation, 1 μM substrate peptide; for Selectivity (6 v 8): ratio of HDAC8 IC50/HDAC6 IC50
T1 construct: Full length Human HDAC6; FLAG (C); host or cells: baculovirus expression system
T1 sequence (Q9UBN7 1-1215): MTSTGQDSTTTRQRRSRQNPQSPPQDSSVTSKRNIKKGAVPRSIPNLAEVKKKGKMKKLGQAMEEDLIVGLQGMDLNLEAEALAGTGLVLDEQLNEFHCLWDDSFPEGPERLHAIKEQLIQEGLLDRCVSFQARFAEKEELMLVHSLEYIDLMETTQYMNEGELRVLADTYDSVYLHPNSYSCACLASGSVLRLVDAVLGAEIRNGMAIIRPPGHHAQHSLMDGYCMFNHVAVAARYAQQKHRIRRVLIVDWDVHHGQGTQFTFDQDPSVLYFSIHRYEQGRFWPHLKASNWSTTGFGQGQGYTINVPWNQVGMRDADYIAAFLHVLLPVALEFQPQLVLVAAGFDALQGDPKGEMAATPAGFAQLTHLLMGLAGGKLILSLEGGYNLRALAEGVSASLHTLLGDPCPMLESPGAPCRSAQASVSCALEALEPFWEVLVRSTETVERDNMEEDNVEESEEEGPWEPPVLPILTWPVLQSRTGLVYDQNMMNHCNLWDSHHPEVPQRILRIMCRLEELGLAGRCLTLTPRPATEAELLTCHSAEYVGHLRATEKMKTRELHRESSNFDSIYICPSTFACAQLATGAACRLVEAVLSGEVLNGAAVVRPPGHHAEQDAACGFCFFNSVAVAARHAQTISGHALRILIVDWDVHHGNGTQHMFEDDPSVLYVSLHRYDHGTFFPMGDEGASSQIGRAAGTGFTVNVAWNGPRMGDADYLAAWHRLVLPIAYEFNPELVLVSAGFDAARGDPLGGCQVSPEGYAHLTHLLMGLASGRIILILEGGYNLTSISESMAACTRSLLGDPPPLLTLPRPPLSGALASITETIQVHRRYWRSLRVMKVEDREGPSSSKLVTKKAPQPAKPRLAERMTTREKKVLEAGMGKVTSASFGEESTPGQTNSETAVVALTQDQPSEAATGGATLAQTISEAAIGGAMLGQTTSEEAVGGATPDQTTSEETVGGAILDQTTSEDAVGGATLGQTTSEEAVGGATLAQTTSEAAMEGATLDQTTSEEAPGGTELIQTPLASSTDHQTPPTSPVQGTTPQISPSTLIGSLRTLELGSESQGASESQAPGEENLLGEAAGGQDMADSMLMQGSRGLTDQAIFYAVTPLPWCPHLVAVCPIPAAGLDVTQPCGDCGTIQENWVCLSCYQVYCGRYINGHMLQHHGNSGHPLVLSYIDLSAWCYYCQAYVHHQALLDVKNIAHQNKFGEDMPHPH

[2] = biological target: T2, Full length Human HDAC8 (Homo sapiens, UniProt Q9BY41); assay: Caliper endpoint assay for HDAC enzymatic activity (HDAC8); assay type: biochemical; conditions: in vitro enzymatic, 30 min pre-incubation, 1 μM substrate peptide
T2 construct: Full length Human HDAC8; HIS (N); host or cells: baculovirus expression system
T2 sequence (Q9BY41 1-377): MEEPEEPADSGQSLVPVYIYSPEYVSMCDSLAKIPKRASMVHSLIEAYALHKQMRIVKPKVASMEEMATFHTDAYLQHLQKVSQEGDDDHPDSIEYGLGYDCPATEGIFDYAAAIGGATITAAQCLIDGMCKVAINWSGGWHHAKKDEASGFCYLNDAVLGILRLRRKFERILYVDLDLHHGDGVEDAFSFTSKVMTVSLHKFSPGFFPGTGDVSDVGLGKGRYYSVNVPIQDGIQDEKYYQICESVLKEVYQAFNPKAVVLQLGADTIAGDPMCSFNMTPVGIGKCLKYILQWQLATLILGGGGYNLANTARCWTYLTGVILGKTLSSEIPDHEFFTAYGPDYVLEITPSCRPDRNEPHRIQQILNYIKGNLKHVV

Row | SMILES | IC50 [1] [nM] | Selectivity (6 v 8) [1] | IC50 [2] [µM]
1 | O=C(NO)c1cc(F)c2c(c1)CCN([C@H]1C[C@]3(CCCNC3)C1)C2 (single isomer, unassigned) [Compound 341, 8-fluoro-N-hydroxy-2-((2r,4s)-6-azaspiro[3.5]nonan-2-yl)-1,2,3,4-tetrahydroisoquinoline-6-carboxamide] | 1 to 100 | IV (IV: >100-1000) | 10 to 100
2 | O=C(NO)c1ccc2c(c1)C[C@@H]1CCCN1C2 [Compound 121] | 100 to 1000 | III (III: >10-100) | 10 to 100
3 | CC[C@H]1Cc2c(F)cc(C(=O)NO)cc2CN1CC12CC(C1)N(C)C2 (single isomer, unassigned) [Compound 535] | 1 to 100 | IV (IV: >100-1000) | 1 to 10
4 | O=C(NO)c1cc(F)c2c(c1)CCN(C1CCC3(CCCCC3)CC1)C2 [Compound 182, 8-fluoro-2-spiro[5.5]undecan-3-yl-3,4-dihydro-1H-isoquinoline-6-carbohydroxamic acid] | 1 to 100 | IV (IV: >100-1000) | 10 to 100
5 | CC1(C)CC(N2CCc3cc(C(=O)NO)cc(F)c3C2)C1 [Compound 201, 2-(3,3-dimethylcyclobutyl)-8-fluoro-3,4-dihydro-1H-isoquinoline-6-carbohydroxamic acid] | 1 to 100 | V (V: >1000) | 10 to 100
6 | O=C(NO)c1cc(F)c2c(c1)CCN(C1CCC3(CC1)CN(Cc1ccccc1)C3)C2 [Compound 430, 2-(2-benzyl-2-azaspiro[3.5]nonan-7-yl)-8-fluoro-3,4-dihydro-1H-isoquinoline-6-carbohydroxamic acid] | 1 to 100 | IV (IV: >100-1000) | 1 to 10
7 | CN1CCC[C@@]2(CC[C@H]2N2CCc3cc(C(=O)NO)cc(F)c3C2)C1 (single isomer, unassigned) [Compound 362] | 100 to 1000 | III (III: >10-100) | 10 to 100
8 | O=C(NO)c1cc(F)c2c(c1)CCN([C@@H]1CCC3(CCCCC3)C1)C2 (single isomer, unassigned) [Compound 110] | 1 to 100 |  | 10 to 100
9 | CC[C@H]1Cc2c(F)cc(C(=O)NO)cc2CN1CC12CC(NC(C)=O)(C1)C2 (single isomer, unassigned) [Compound 525] | 1 to 100 | III (III: >10-100) | 1 to 10
10 | CN1CC[C@]2(CC[C@@H](N3CCc4cc(C(=O)NO)cc(F)c4C3)C2)C1 (single isomer, unassigned) [Compound 402] | 1 to 100 | IV (IV: >100-1000) | 1 to 10
11 | O=C(NO)c1cc(F)c2c(c1)CCN(C[C@@H]1CCCCO1)C2 (single isomer, unassigned) [Compound 174] | 1 to 100 | IV (IV: >100-1000) | 10 to 100
12 | C[C@@H]1C[C@@H]2c3c(F)cc(C(=O)NO)cc3CCN2C1 (single isomer, unassigned) [Compound 151] | 1 to 100 |  | 1 to 10
13 | CC[C@@H]1Cc2c(F)cc(C(=O)NO)cc2CN1CC1CCC2(CCC2)CC1 (single isomer, unassigned) [Compound 527] | 1 to 100 | III (III: >10-100) | 1 to 10
14 | CC[C@@H]1Cc2c(F)cc(C(=O)NO)cc2CN1CC12CC3CC(CC(C3)O1)C2 (single isomer, unassigned) [Compound 509] | 1 to 100 | III (III: >10-100) | 1 to 10
